Results reported in patent US20230026616A1, “PYRIMIDOIMIDAZOLE COMPOUNDS USED AS DNA-PK INHIBITORS” (MEDSHINE DISCOVERY INC., priority 2019, published 2023).
pIC50: −log10 of the molar value.

Key:
[1] = Pharmacokinetic evaluation (1): cassette PK in Balb/c male mice, plasma; format: in vivo; conditions: for AUC(0-t) / C0 / clearance / half-life / Vd / Cmax / Tmax: male, Balb/c; for AUC(0-t) / C0 / clearance / half-life / Vd / Cmax / Tmax / Tlast: mouse plasma; for Vd: read-out: Vdss; for Tmax: read-out: Tmax; for F: mouse
Description: Test compounds were mixed with 10% dimethyl sulfoxide/50% polyethylene glycol 200/40% water (compounds 1, 4, 10, 17) or 20% N,N-dimethylacetamide/80% water (compound 5), vortexed and sonicated to prepare a nearly clear solution of 0.08 mg/mL (compounds 1, 4, 10, 17) or 0.50 mg/mL (compound 5), then filtered through a microporous membrane for next step. Balb/c male mice of 18 to 20 grams were selected and administered intravenously with the candidate compound solution at a dose of 0.4 (compounds 1, 4, 10, 17) or 1 mg/kg (compound 5). Test compounds were mixed with 10% dimethyl sulfoxide/50% polyethylene glycol 200/40% water (compounds 1, 4, 10, 17) or 20%-hydroxypropyl-β-cyclodextrin (compound 5), vortexed and sonicated to prepare a nearly clear solution of 0.2 mg/mL (compounds 1, 4, 10, 17) or 1 mg/mL (compound 5), then filtered through a microporous membrane for next step. Balb/c male mice of 18 to 20 grams were selected and orally administered with the candidate compound solution at a dose of 2 (compounds 1, 4, 10, 17) or 5 mg/kg (compound 5). Whole blood was collected for a certain period of time, and plasma was prepared, then drug concentration was detected by LC-MS/MS method, and pharmacokinetic parameters were calculated by Phoenix WinNonlin software (Pharsight, USA).
(§1) IV: intravenous injection; PO: oral; C0: instantaneous […] concentration after intravenous injection; Cmax: highest plasma concentration after administration; Tmax: time required to reach peak of drug concentration after administration; T1/2: time required for the plasma drug concentration to decrease by half, Vdss: apparent volume of distribution, refers to the proportional constant of the drug dose in vivo and the blood drug concentration when the drug reaches a dynamic equilibrium in vivo. Cl: clearance rate, refers to the […] cleared from the body per unit time; Tlast: time at the last detection point; AUC0-last: area under the drug-time curve, refers to the area covered by the plasma concentration curve and the time axis; F: a measure of the speed and degree of drug absorption into the blood circulation, which is an important indicator for evaluating the degree of drug absorption.

[2] = Pharmacokinetic evaluation in Beagle dogs; format: in vivo, Male Beagle dogs; conditions: for Tlast / AUC(0-t) / C0 / clearance / half-life / Vd / Cmax / Tmax: Beagle dog plasma; for F: Beagle dog, PO 5 mpk vs IV 1 mpk; for AUC(0-t) / C0 / clearance / half-life / Vd / Cmax / Tmax: male; for Vd: read-out: Vdss
Source text: as §1
Test compounds were mixed with 10% dimethyl sulfoxide/50% polyethylene glycol 200/40% water, vortexed and sonicated to prepare a nearly clear solution of 1 mg/mL, then filtered through a microporous membrane for next step. Male Beagle dogs were selected and administered intravenously with the candidate compound solution at a dose of 1 mg/kg. Test compounds were mixed with 10% dimethyl sulfoxide/50% polyethylene glycol 200/40% water, vortexed and sonicated to prepare a nearly clear solution of 1 mg/mL, then filtered with a microporous membrane for next step. Male Beagle dogs were selected and orally administered with the candidate compound solution at a dose of 5 mg/kg. Whole blood was collected for a certain period of time, and plasma was prepared, then drug concentration was detected by LC-MS/MS method, and pharmacokinetic parameters were calculated by Phoenix WinNonlin software (Pharsight, USA).

Human DNA-PK = target: T1, Human DNA-PK (Homo sapiens, UniProt P78527); assay: DNA-dependent protein kinase (DNA-PK) inhibitory activity screening (Eurofins, HTRF); format: biochemical; conditions: ATP: 10 μM; read-out: DNA-PK kinase inhibition IC50
T1 construct: purchased Eurofins (Eurofins Pharma Discovery Service)
Description: Experimental Embodiment 1: DNA-Dependent Protein Kinase (DNA-PK) Inhibitory Activity Screening Experiment
This experiment was tested in the Eurofins
Human DNA-PK; Mg/ATP; GST-cMyc-p53; EDTA; Ser15 antibody; ATP: 10 μM.
Experimental Method (Eurofins Pharma Discovery Service):
DNA-PK (h) was incubated in assay buffer containing 50 nM GST-cMyc-p53 and Mg/ATP (according to the required concentration). The reaction was initiated by adding Mg/ATP mixture. After 30 minutes of incubation at room temperature, the reaction was stopped by adding a stop solution containing EDTA. Finally, detection buffer (containing labeled anti-GST monoclonal antibody and europium-labeled anti-Ser15 antibody against phosphorylated p53) was added. The plate was then read in time-resolved fluorescence mode, and the homogeneous time-resolved fluorescence (HTRF) signal was determined according to the formula HTRF=10000×(Em665 nm/Em620 nm).

Tlast ([2]; IV 1 mpk) [h]	Tlast ([2]; PO 5 mpk) [h]	F [2] [%]	AUC(0-t) ([2]; 1 mg/kg, IV 1 mpk) [µM·h]	C0 ([2]; 1 mg/kg, IV 1 mpk) [nM]	clearance ([2]; 1 mg/kg, IV 1 mpk) [mL/min/kg]	half-life ([2]; 1 mg/kg, IV 1 mpk) [h]	Vd ([2]; 1 mg/kg, IV 1 mpk) [L/kg]	AUC(0-t) ([2]; 5 mg/kg, PO 5 mpk) [µM·h]	Cmax ([2]; 5 mg/kg, PO 5 mpk) [nM]	Tmax ([2]; 5 mg/kg, PO 5 mpk) [h]	half-life ([2]; 5 mg/kg, PO 5 mpk) [h]	pIC50 (Human DNA-PK)	Compound	also measured
24	24	279	4.96	1820	8.26	4.04	1.87	68.3	9270	1.67	4.27	9.00	Cc1cc2ncnn2cc1Nc1ncc2c(n1)n(N1CC3CCC(C1)O3)c(=O)n2C [Compound 5]	AUC(0-t) ([1]; IV 1 mg/kg): 1.66 µM·h; C0 ([1]; IV 1 mg/kg): 3600 nM; clearance ([1]; IV 1 mg/kg): 24.7 mL/min/kg; half-life ([1]; IV 1 mg/kg): 1.28 h; Vd ([1]; IV 1 mg/kg): 1.49 L/kg; AUC(0-t) ([1]; PO 5 mg/kg): 3.49 µM·h; Cmax ([1]; PO 5 mg/kg): 2170 nM; half-life ([1]; PO 5 mg/kg): 3.85 h; Tmax ([1]; PO 5 mg/kg): 0.25 h; Tlast ([1]; PO 5 mg/kg): 10 h; F ([1]; PO 5 mg/kg vs IV 1 mg/kg): 44.5%
24	24	92.3	6.82	1450	5.89	5.04	1.58	31.5	4940	1.5	4.27	9.30	Cc1cc2nncn2cc1Nc1ncc2c(n1)n(N1CC3CCC(C1)O3)c(=O)n2C [Compound 17]	AUC(0-t) ([1]; IV 0.4 mg/kg): 0.47 µM·h; C0 ([1]; IV 0.4 mg/kg): 748 nM; clearance ([1]; IV 0.4 mg/kg): 34.7 mL/min/kg; half-life ([1]; IV 0.4 mg/kg): 0.559 h; Vd ([1]; IV 0.4 mg/kg): 1.39 L/kg; AUC(0-t) ([1]; PO 2 mg/kg): 3.4 µM·h; Cmax ([1]; PO 2 mg/kg): 1540 nM; half-life ([1]; PO 2 mg/kg): 0.81 h; Tmax ([1]; PO 2 mg/kg): 1 h; Tlast ([1]; IV 0.4 mg/kg): 4 h; Tlast ([1]; PO 2 mg/kg): 8 h; F ([1]; PO 2 mg/kg vs IV 0.4 mg/kg): 144%
